According to PubChem BioAssay AID330 (DTP/NCI, 2004):
Where “and” joins values, the source holds several entries; their conditions need not be identical. Equal entries are not always repeated. Inconclusive results and toxic doses are left out. Rule for the calls: active = survival T/C of 150% or more; inactive = T/C below 125% in these data. Peptide text beside a SMILES is read from it. * marks the point of attachment. Trt = c1ccc(C(c2ccccc2)(c2ccccc2)*)cc1; Boc = CC(C)(C)OC(=O)*; Bn = c1ccc(C*)cc1

Test system: P388 leukemia ip, CD2F1 mice, survival T/C
Assay: NCI In Vivo Anticancer Drug Screen. Data for tumor model P388 Leukemia (intraperitoneal) in CD2F1 (CDF1) mice
Conditions: endpoint: median survival time, higher = longer survival
In short: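 Mice carrying the transplanted tumor received test compound or vehicle. Survival was recorded in each group, and the value is the treated-group measurement divided by that of the vehicle-treated control group.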

[1] = dose: 60.0 mg/kg/injection, schedule: Q01DX005 (ip), vehicle: saline with Tween-80
[2] = dose: 50.0 mg/kg/injection, schedule: Q01DX005 (ip), vehicle: Klucel (hydroxypropylcellulose) (HPC)
[3] = dose: 100.0 mg/kg/injection, schedule: Q01DX005 (ip), vehicle: Klucel (hydroxypropylcellulose) (HPC)
[4] = dose: 200.0 mg/kg/injection, schedule: Q01DX005 (ip), vehicle: Klucel (hydroxypropylcellulose) (HPC)
[5] = dose: 50.0 mg/kg/injection, schedule: Q01DX009 (ip), vehicle: saline
[6] = dose: 50.0 mg/kg/injection, schedule: Q01DX009 (ip), vehicle: saline with Tween-80
[7] = dose: 50.0 mg/kg/injection, schedule: Q01DX005 (ip), vehicle: saline
[8] = dose: 100.0 mg/kg/injection, schedule: Q01DX005 (ip), vehicle: saline
[9] = dose: 200.0 mg/kg/injection, schedule: Q01DX005 (ip), vehicle: saline
[10] = dose: 100.0 mg/kg/injection, schedule: Q04DX003 (ip), vehicle: saline
[11] = dose: 50.0 mg/kg/injection, schedule: Q01DX009 (ip), vehicle: Klucel (hydroxypropylcellulose) (HPC)
[12] = dose: 100.0 mg/kg/injection, schedule: Q01DX009 (ip), vehicle: Klucel (hydroxypropylcellulose) (HPC)
[13] = dose: 200.0 mg/kg/injection, schedule: Q01DX009 (ip), vehicle: Klucel (hydroxypropylcellulose) (HPC)
[14] = dose: 6.25 mg/kg/injection, schedule: Q01DX009 (ip), vehicle: saline
[15] = dose: 12.5 mg/kg/injection, schedule: Q01DX009 (ip), vehicle: saline
[16] = dose: 25.0 mg/kg/injection, schedule: Q01DX009 (ip), vehicle: saline
[17] = dose: 200.0 mg/kg/injection, schedule: Q04DX003 (ip), vehicle: saline

Measured: T/C

N#Cc1c(=O)[nH]c(=O)n2c1[nH]c1ccccc12
inactive: dose: 15.0 mg/kg/injection, schedule: Q01DX005 (ip), vehicle: saline with Tween-80 102 % of control | dose: 30.0 mg/kg/injection, schedule: Q01DX005 (ip), vehicle: saline with Tween-80 104 % of control | [1] 105 % of control and 88 % of control

CCOC(=O)CNC(=O)C(CSCc1ccccc1)NC(=O)C(CSC(c1ccccc1)(c1ccccc1)c1ccccc1)NC(=O)OC(C)(C)C (configuration not stated) (Boc-Cys(Trt)-Cys(Bn)-Gly-OEt; configuration not given here)
inactive: [2] 101 % of control | [3] 101 % of control | [4] 99 % of control

CCN(CC)Cc1cc(Nc2c3ccccc3nc3cc(Cl)ccc23)ccc1O
inactive: dose: 33.0 mg/kg/injection, schedule: Q01DX009 (ip), vehicle: saline 100 % of control | [5] 109 % of control | dose: 75.0 mg/kg/injection, schedule: Q01DX009 (ip), vehicle: saline 122 % of control

COC(=O)/C=C(\C(=O)OC)c1ccccc1C(C(=O)OC)c1ccccc1CC(=O)OC (configuration not stated)
inactive: [6] 108 % of control | dose: 100.0 mg/kg/injection, schedule: Q01DX009 (ip), vehicle: saline with Tween-80 106 % of control | dose: 200.0 mg/kg/injection, schedule: Q01DX009 (ip), vehicle: saline with Tween-80 108 % of control

CC(O)C(N)C(=O)NC(Cc1ccc(O)cc1)C(=O)NC(CO)C(=O)NC(CCCCN)C(=O)O (configuration not stated) (H-TYSK-OH; configuration not given here)
inactive: [7] 99 % of control | [8] 107 % of control | [9] 106 % of control

CC#CCOCC(O)CCl (configuration not stated)
inactive: dose: 66.0 mg/kg/injection, schedule: Q04DX003 (ip), vehicle: saline 110 % of control | [10] 100 % of control | dose: 150.0 mg/kg/injection, schedule: Q04DX003 (ip), vehicle: saline 120 % of control

O=c1c2ccc(S(=O)(=O)c3ccc4c(=O)n5c6ccccc6nc5c5cccc3c45)c3cccc(c32)c2nc3ccccc3n12
inactive: dose: 60.0 mg/kg/injection, schedule: Q01DX005 (ip), vehicle: Klucel (hydroxypropylcellulose) (HPC) 86 % of control | dose: 120.0 mg/kg/injection, schedule: Q01DX005 (ip), vehicle: Klucel (hydroxypropylcellulose) (HPC) 88 % of control | dose: 240.0 mg/kg/injection, schedule: Q01DX005 (ip), vehicle: Klucel (hydroxypropylcellulose) (HPC) 99 % of control

CC(C)(O)c1cc(=O)n(-c2ccccc2)[nH]1
inactive: [2] 102 % of control | [3] 101 % of control | [4] 105 % of control

O=C(O)c1c(O)ccc(O)c1C(=O)O
inactive: [1] 101 % of control | dose: 120.0 mg/kg/injection, schedule: Q01DX005 (ip), vehicle: saline with Tween-80 92 % of control | dose: 240.0 mg/kg/injection, schedule: Q01DX005 (ip), vehicle: saline with Tween-80 97 % of control

CC1=Nc2ccc(C)cc2N=C(C)C1
inactive: [5] 86 % of control | dose: 100.0 mg/kg/injection, schedule: Q01DX009 (ip), vehicle: saline 91 % of control

COc1ccc(/C=C(\C(C)=O)C(=O)CCN(C)C)cc1
inactive: [7] 95 % of control | [8] 105 % of control | [9] 115 % of control

CCCC1N=C(N)N=C(N)N1c1ccc(OC)cc1 (configuration not stated)
inactive: dose: 12.5 mg/kg/injection, schedule: Q01DX005 (ip), vehicle: saline with Tween-80 100 % of control | dose: 25.0 mg/kg/injection, schedule: Q01DX005 (ip), vehicle: saline with Tween-80 103 % of control | dose: 50.0 mg/kg/injection, schedule: Q01DX005 (ip), vehicle: saline with Tween-80 101 % of control and 106 % of control

CCCCCCCCCN1CCS(=O)(=O)CC1
inactive: [11] 94 % of control | [12] 98 % of control | [13] 103 % of control

Cc1nn(C(=O)c2ccncc2)c(C)c1N=Nc1cccc(Cl)c1
inactive: [11] 99 % of control | [12] 100 % of control | [13] 98 % of control

O=c1[nH]cc(COCC(F)(F)F)c(=O)[nH]1
inactive: dose: 50.0 mg/kg/injection, schedule: Q04DX003 (ip), vehicle: saline with Tween-80 99 % of control | dose: 100.0 mg/kg/injection, schedule: Q04DX003 (ip), vehicle: saline with Tween-80 111 % of control

O=C(O)C(=O)O.[Co].[NH-]CC[NH-].[NH-]CC[NH-]
inactive: dose: 12.5 mg/kg/injection, schedule: Q04DX002 (ip), vehicle: saline with Tween-80 100 % of control | dose: 25.0 mg/kg/injection, schedule: Q04DX002 (ip), vehicle: saline with Tween-80 100 % of control

OC(C[n+]1ccccc1)c1ccccc1 (configuration not stated)
inactive: [14] 105 % of control | [15] 100 % of control | [16] 109 % of control | [5] 100 % of control

CC(Cc1cccc2ccccc12)C(N)=O (configuration not stated)
inactive: [2] 100 % of control | [3] 99 % of control | [4] 99 % of control

Cc1oc2ccccc2c(=O)c1CN1CCN(C)CC1
inactive: dose: 60.0 mg/kg/injection, schedule: Q01DX005 (ip), vehicle: saline 101 % of control | dose: 120.0 mg/kg/injection, schedule: Q01DX005 (ip), vehicle: saline 103 % of control

CC(C)C1=CC2=C[C@H](O)[C@H]3C(C)(C)CCC[C@]3(C)C2=C(O)C1=O
inactive: dose: 1.25 mg/kg/injection, schedule: Q01DX009 (ip), vehicle: saline with Tween-80 109 % of control and 91 % of control | dose: 1.25 mg/kg/injection, schedule: Q01DX009 (ip), vehicle: suspension in saline 103 % of control | dose: 1.75 mg/kg/injection, schedule: Q01DX009 (ip), vehicle: saline with Tween-80 108 % of control | dose: 2.5 mg/kg/injection, schedule: Q01DX009 (ip), vehicle: saline with Tween-80 100 % of control and 111 % of control and 123 % of control | dose: 2.5 mg/kg/injection, schedule: Q01DX009 (ip), vehicle: suspension in saline 109 % of control | dose: 5.0 mg/kg/injection, schedule: Q01DX009 (ip), vehicle: saline with Tween-80 104 % of control and 108 % of control and 111 % of control | dose: 5.0 mg/kg/injection, schedule: Q01DX009 (ip), vehicle: suspension in saline 100 % of control | dose: 10.0 mg/kg/injection, schedule: Q01DX009 (ip), vehicle: saline with Tween-80 107 % of control and 109 % of control and 113 % of control | dose: 10.0 mg/kg/injection, schedule: Q01DX009 (ip), vehicle: suspension in saline 113 % of control | dose: 20.0 mg/kg/injection, schedule: Q01DX009 (ip), vehicle: suspension in saline 109 % of control

CCCC(O)C(C)[N+](=O)[O-] (configuration not stated)
inactive: [10] 100 % of control | [17] 95 % of control

CCCCCCCCCCCCCCCCNCCCS(=O)(=O)O
inactive: dose: 6.25 mg/kg/injection, schedule: Q01DX009 (ip), vehicle: saline with Tween-80 96 % of control | [14] 103 % of control | dose: 12.5 mg/kg/injection, schedule: Q01DX009 (ip), vehicle: saline with Tween-80 107 % of control | [15] 100 % of control | [16] 100 % of control | [6] 103 % of control | [5] 103 % of control

NC(N)=NN=c1/c(=N\N=C(N)N)c2ccccc2/c1=N/N=C(N)N
inactive: dose: 25.0 mg/kg/injection, schedule: Q01DX001 (ip), vehicle: saline 99 % of control

CN1CCC(OC(=O)c2ccco2)CC1
inactive: dose: 50.0 mg/kg/injection, schedule: Q04DX003 (ip), vehicle: saline 101 % of control | [10] 100 % of control | [17] 99 % of control
